Experimental data as given in ChEMBL document CHEMBL1201862, “PubChem BioAssay data set” (2004).
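96-well plates; 48 h exposure; 5 concentrations. Endpoints by linear interpolation between flanking doses. Not reached: highest tested concentration assigned. GI50: concentration for 50% inhibition of growth.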 Calls of active or inactive are those of the source. Cut-off read from the data, not from the text of the source: active = GI50 up to about 1.1 µM and inactive = higher.

Legend:
Assay in all cases: NCI anticancer screen, dose series, 48 h
IGROV-1 = system: IGROV-1
SK-MEL-2 = system: SK-MEL-2
HT-29 = system: HT-29
NCI-H522 = system: NCI-H522
Hs-578T = system: Hs-578T
UACC-257 = system: UACC-257
MOLT-4 = system: MOLT-4
SK-MEL-28 = system: SK-MEL-28
DU-145 = system: DU-145
LOX IMVI = system: LOX IMVI
MDA-MB-231 = system: MDA-MB-231
SF-268 = system: SF-268
U-251 = system: U-251
NCI-H23 = system: NCI-H23
KM12 = system: KM12
MCF7 = system: MCF7
CCRF-CEM = system: CCRF-CEM
786-0 = system: 786-0
MDA-N = system: MDA-N
HOP-62 = system: HOP-62
NCI-H460 = system: NCI-H460
SR = system: SR
OVCAR-3 = system: OVCAR-3
ACHN = system: ACHN
HCC 2998 = system: HCC 2998
SNB-19 = system: SNB-19
PC-3 = system: PC-3
MDA-MB-435 = system: MDA-MB-435
NCI-H226 = system: NCI-H226
SF-539 = system: SF-539
BT-549 = system: BT-549
Malme-3M = system: Malme-3M
SN12C = system: SN12C
UACC-62 = system: UACC-62
HCT-116 = system: HCT-116
SW-620 = system: SW-620
RPMI-8226 = system: RPMI-8226
OVCAR-8 = system: OVCAR-8
SK-OV-3 = system: SK-OV-3
OVCAR-5 = system: OVCAR-5
SK-MEL-5 = system: SK-MEL-5
TK-10 = system: TK-10
HCT-15 = system: HCT-15
COLO 205 = system: COLO 205
HL-60 = system: HL-60
M14 = system: M14
UO-31 = system: UO-31
HOP-92 = system: HOP-92
A549 = system: A549
T47D = system: T47D
SNB-75 = system: SNB-75
SF-295 = system: SF-295
NCI/ADR-RES = system: NCI/ADR-RES
EKVX = system: EKVX
OVCAR-4 = system: OVCAR-4
A498 = system: A498
K562 = system: K562
RXF 393 = system: RXF 393
CAKI-1 = system: CAKI-1

CC1OC2OC3C(OCC(O)C3O)OC(=O)[C@]34CCC(C)(C)CC3C3=CCC5[C@@]6(C)C[C@H](O)[C@H](OC7OC(CO)C(O)C(O)C7OC7OCC(OC(=O)CC(C)(O)CC(=O)OC1C(O)C2O)C(O)C7O)[C@@](C)(CO)C6CC[C@@]5(C)[C@]3(C)CC4 (stereo partly specified)
GI50 (IGROV-1): 5.71 µM (inactive) | GI50 (SK-MEL-2): 7.91 µM (inactive) | GI50 (HT-29): 2.73 µM (inactive) | GI50 (NCI-H522): 3.67 µM (inactive) | GI50 (Hs-578T): 8.34 µM (inactive) | GI50 (UACC-257): 2.33 µM (inactive) | GI50 (MOLT-4): 8.89 µM (inactive) | GI50 (SK-MEL-28): 1.96 µM (inactive) | GI50 (DU-145): 3.97 µM (inactive) | GI50 (LOX IMVI): 9.86 µM (inactive) | GI50 (MDA-MB-231): 9.23 µM (inactive) | GI50 (SF-268): 2.45 µM (inactive) | GI50 (U-251): 3.48 µM (inactive) | GI50 (NCI-H23): 3.1 µM (inactive) | GI50 (KM12): 2.82 µM (inactive) | GI50 (MCF7): 13 µM (inactive) | GI50 (CCRF-CEM): 5.68 µM (inactive) | GI50 (786-0): 12.1 µM (inactive) | GI50 (MDA-N): 4.05 µM (inactive) | GI50 (HOP-62): 2.75 µM (inactive) | GI50 (NCI-H460): 11.6 µM (inactive) | GI50 (SR): 6.35 µM (inactive) | GI50 (OVCAR-3): 9.64 µM (inactive) | GI50 (ACHN): 6.34 µM (inactive) | GI50 (HCC 2998): 2.43 µM (inactive) | GI50 (SNB-19): 6.22 µM (inactive) | GI50 (PC-3): 2.17 µM (inactive) | GI50 (MDA-MB-435): 5.89 µM (inactive) | GI50 (NCI-H226): 14.9 µM (inactive) | GI50 (SF-539): 12.7 µM (inactive) | GI50 (BT-549): 10.2 µM (inactive) | GI50 (Malme-3M): 3.68 µM (inactive) | GI50 (SN12C): 9.53 µM (inactive) | GI50 (UACC-62): 4.3 µM (inactive) | GI50 (HCT-116): 5.75 µM (inactive) | GI50 (SW-620): 8.85 µM (inactive) | GI50 (RPMI-8226): 4.17 µM (inactive) | GI50 (OVCAR-8): 4.5 µM (inactive) | GI50 (SK-OV-3): 3.19 µM (inactive) | GI50 (OVCAR-5): 2.66 µM (inactive) | GI50 (SK-MEL-5): 4.18 µM (inactive) | GI50 (TK-10): 8.79 µM (inactive) | GI50 (HCT-15): 7.98 µM | GI50 (COLO 205): 1.89 µM (inactive) | GI50 (HL-60): 1.82 µM (inactive) | GI50 (M14): 2.82 µM (inactive) | GI50 (UO-31): 6.03 µM (inactive) | GI50 (HOP-92): 2.32 µM (inactive) | GI50 (A549): 2.24 µM (inactive) | GI50 (T47D): 4.98 µM (inactive) | GI50 (SNB-75): 5.64 µM (inactive) | GI50 (SF-295): 3.42 µM (inactive) | GI50 (NCI/ADR-RES): 12.7 µM (inactive)

CCc1c(Cl)c(C)cc(O)c1Cl
GI50 (IGROV-1): 51.1 µM (inactive) | GI50 (SK-MEL-2): 20.8 µM (inactive) | GI50 (HT-29): 27.5 µM (inactive) | GI50 (NCI-H522): 30.7 µM (inactive) | GI50 (Hs-578T): 25.7 µM (inactive) | GI50 (UACC-257): 29.6 µM (inactive) | GI50 (MOLT-4): 27.4 µM (inactive) | GI50 (SK-MEL-28): 58.3 µM (inactive) | GI50 (DU-145): > 100 µM (inactive) | GI50 (EKVX): 36.2 µM (inactive) | GI50 (LOX IMVI): 23.8 µM (inactive) | GI50 (MDA-MB-231): 40.7 µM (inactive) | GI50 (SF-268): 53.8 µM (inactive) | GI50 (U-251): 15.6 µM (inactive) | GI50 (NCI-H23): 34.8 µM (inactive) | GI50 (KM12): 22.6 µM (inactive) | GI50 (MCF7): 32 µM (inactive) | GI50 (CCRF-CEM): 25.7 µM (inactive) | GI50 (786-0): 38.2 µM (inactive) | GI50 (MDA-N): 19.4 µM (inactive) | GI50 (HOP-62): > 100 µM (inactive) | GI50 (NCI-H460): 32.7 µM (inactive) | GI50 (OVCAR-3): 52 µM (inactive) | GI50 (ACHN): 22.1 µM (inactive) | GI50 (OVCAR-4): 34.1 µM (inactive) | GI50 (HCC 2998): 1.71 µM (inactive) | GI50 (A498): 18.8 µM (inactive) | GI50 (SNB-19): 38.7 µM (inactive) | GI50 (PC-3): 19.6 µM (inactive) | GI50 (MDA-MB-435): 35.6 µM (inactive) | GI50 (NCI-H226): 20.9 µM (inactive) | GI50 (SF-539): 23 µM (inactive) | GI50 (BT-549): 16.6 µM (inactive) | GI50 (Malme-3M): 30.1 µM (inactive) | GI50 (SN12C): 16.7 µM (inactive) | GI50 (UACC-62): 32.6 µM (inactive) | GI50 (HCT-116): 33.5 µM (inactive) | GI50 (SW-620): 20.6 µM (inactive) | GI50 (RPMI-8226): 24.1 µM (inactive) | GI50 (OVCAR-8): 44.3 µM (inactive) | GI50 (SK-OV-3): > 100 µM (inactive) | GI50 (OVCAR-5): > 100 µM (inactive) | GI50 (SK-MEL-5): 15.3 µM (inactive) | GI50 (TK-10): > 100 µM (inactive) | GI50 (K562): 33.7 µM (inactive) | GI50 (HCT-15): 17.8 µM | GI50 (COLO 205): 43.7 µM (inactive) | GI50 (HL-60): 18.3 µM (inactive) | GI50 (M14): 34.7 µM (inactive) | GI50 (UO-31): 23.7 µM (inactive) | GI50 (HOP-92): 23.2 µM (inactive) | GI50 (A549): 44.4 µM (inactive) | GI50 (T47D): 26.8 µM (inactive) | GI50 (SNB-75): 56.8 µM (inactive) | GI50 (RXF 393): 23.4 µM (inactive) | GI50 (CAKI-1): 74.1 µM (inactive) | GI50 (SF-295): 33.1 µM (inactive) | GI50 (NCI/ADR-RES): 45.2 µM (inactive)
